Measured values reported in patent publication US6737383B1, “Herbicidal oxadiazolidines” (priority 1999, dated 2004).

What was measured:
cocklebur = assay: Test B pre/postemergence cocklebur; format: in vivo, Xanthium strumarium
Method in brief: (§1)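 Herbicidal effect was estimated by eye on a ten-point control scale after plants spent twelve to sixteen days in a greenhouse following soil or foliar treatment. Foliar sprays targeted plants at one to four leaves; all doses were formulated in a non-phytotoxic solvent with surfactant.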

wheat = assay: Test B pre/postemergence wheat; format: in vivo, Triticum aestivum
Method in brief: as §1

rice = assay: Test B flood test rice; format: in vivo, Oryza sativa
Method in brief: (§2)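 Each value is a visual injury score relative to controls, with 10 meaning complete control and 0 no effect. Evaluation took place twelve to sixteen days after the 2-leaf-stage plants were treated and kept in the greenhouse.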

duck salad = assay: Test B flood test duck salad; format: in vivo, Heteranthera limosa
Method in brief: as §2

giant foxtail = assay: Test B pre/postemergence giant foxtail; format: in vivo, Setaria faberii
Method in brief: as §1

soybean = assay: Test B pre/postemergence soybean; format: in vivo, Glycine max
Method in brief: as §1

corn = assay: Test B pre/postemergence corn; format: in vivo, Zea mays
Method in brief: as §1

pigweed = assay: Test B pre/postemergence pigweed; format: in vivo, Amaranthus retroflexus
Method in brief: as §1

rape = assay: Test B pre/postemergence rape; format: in vivo, Brassica napus
Method in brief: as §1

morningglory = assay: Test B pre/postemergence morningglory; format: in vivo, Ipomoea hederacea
Method in brief: as §1

velvetleaf = assay: Test B pre/postemergence velvetleaf; format: in vivo, Abutilon theophrasti
Method in brief: as §1

purple nutsedge = assay: Test B pre/postemergence purple nutsedge; format: in vivo, Cyperus rotundus
Method in brief: as §1

crabgrass = assay: Test B pre/postemergence crabgrass; format: in vivo, Digitaria sanguinalis
Method in brief: as §1

sugar beet = assay: Test B pre/postemergence sugar beet; format: in vivo, Beta vulgaris
Method in brief: as §1

wild oat = assay: Test B pre/postemergence wild oat; format: in vivo, Avena fatua
Method in brief: as §1

bamyardgrass = assay: Test B flood test barnyardgrass; format: in vivo, Echinochloa crus-galli
Method in brief: as §2

[1] = Postemergence, Rate 125 g/ha, scale of 0 to 10 where 0 is no effect and 10 is complete control
[2] = Preemergence, Rate 31 g/ha, visual rating, scale 0 to 10 (0 no effect, 10 complete control)
[3] = Preemergence, Rate 62 g/ha, scale 0 to 10 (0 no effect, 10 complete control)
[4] = Preemergence, Rate 125 g/ha, 0 is no effect, 10 is complete control
[5] = Preemergence, Rate 250 g/ha, scale 0 to 10, 0 is no effect, 10 is complete control
[6] = Rate 31 g/ha, Postemergence, scale 0 to 10
[7] = Rate 62 g/ha, Postemergence, scale of 0 to 10 where 0 is no effect and 10 is complete control
[8] = Rate 250 g/ha, Postemergence, scale 0 to 10, 0 is no effect, 10 is complete control
[9] = Postemergence (flood test species), Rate 125 g/ha, scale of 0 to 10 where 0 is no effect and 10 is complete control
[10] = Rate 31 g/ha, Postemergence section (flood test species), scale 0 to 10
[11] = Rate 62 g/ha, Postemergence section, flood test species, scale of 0 to 10 where 0 is no effect and 10 is complete control
[12] = Rate 250 g/ha, Postemergence (flood test), scale 0 to 10, 0 is no effect, 10 is complete control

Cc1noc(C)c1-n1c(=O)on(C(=O)N(c2ccc(F)cc2)C(C)C)c1=O [Compound 155]
Cocklebur plant response rating (cocklebur; [1]): 0 | Cocklebur plant response rating (cocklebur; [2]): 0 | Cocklebur plant response rating (cocklebur; [3]): 0 | Cocklebur plant response rating (0 to 10 scale) (cocklebur; [4]): 0 | Cocklebur plant response rating (cocklebur; [5]): 0 | Cocklebur plant response rating (cocklebur; [6]): 0 | Cocklebur plant response rating (cocklebur; [7]): 0 | Plant response rating, Cocklebur (cocklebur; [8]): 0 | Wheat plant response rating (wheat; [2]): 0 | Wheat plant response rating (wheat; [3]): 0 | Wheat plant response rating (0 to 10 scale) (wheat; [4]): 0 | Wheat plant response rating (wheat; [5]): 0 | Wheat plant response rating (wheat; [7]): 0 | Plant response rating, Wheat (wheat; [8]): 0 | Rice plant response rating (rice; [9]): 0 | Rice plant response rating (rice; [10]): 0 | Rice plant response rating (rice; [11]): 0 | Plant response rating, Rice (rice; [12]): 0 | Ducksalad plant response rating (duck salad; [9]): 0 | Ducksalad plant response rating (duck salad; [10]): 0 | Ducksalad plant response rating (duck salad; [11]): 0 | Plant response rating, Ducksalad (duck salad; [12]): 0 | Giant foxtail plant response rating (giant foxtail; [1]): 3 | Giant foxtail plant response rating (giant foxtail; [2]): 0 | Giant foxtail plant response rating (giant foxtail; [3]): 0 | Giant foxtail plant response rating (0 to 10 scale) (giant foxtail; [4]): 0 | Giant foxtail plant response rating (giant foxtail; [5]): 2 | Giant foxtail plant response rating (giant foxtail; [6]): 0 | Giant foxtail plant response rating (giant foxtail; [7]): 1 | Plant response rating, Giant foxtail (giant foxtail; [8]): 6 | Soybean plant response rating (soybean; [1]): 1 | Soybean plant response rating (soybean; [2]): 0 | Soybean plant response rating (soybean; [3]): 0 | Soybean plant response rating (0 to 10 scale) (soybean; [4]): 0 | Soybean plant response rating (soybean; [5]): 0 | Soybean plant response rating (soybean; [7]): 1 | Plant response rating, Soybean (soybean; [8]): 1 | Corn plant response rating (corn; [1]): 0 | Corn plant response rating (corn; [2]): 0 | Corn plant response rating (corn; [3]): 0 | Corn plant response rating (0 to 10 scale) (corn; [4]): 0 | Corn plant response rating (corn; [5]): 0 | Corn plant response rating (corn; [6]): 0 | Corn plant response rating (corn; [7]): 0 | Plant response rating, Corn (corn; [8]): 2 | Redroot pigweed plant response rating (pigweed; [1]): 0 | Redroot pigweed plant response rating (pigweed; [2]): 0 | Redroot pigweed plant response rating (pigweed; [3]): 0 | Redroot pigweed plant response rating (0 to 10 scale) (pigweed; [4]): 0 | Redroot pigweed plant response rating (pigweed; [5]): 3 | Redroot pigweed plant response rating (pigweed; [6]): 0 | Redroot pigweed plant response rating (pigweed; [7]): 0 | Plant response rating, Redroot pigweed (pigweed; [8]): 0 | Rape plant response rating (rape; [1]): 0 | Rape plant response rating (rape; [2]): 0 | Rape plant response rating (rape; [3]): 0 | Rape plant response rating (0 to 10 scale) (rape; [4]): 0 | Rape plant response rating (rape; [5]): 0 | Rape plant response rating (rape; [6]): 0 | Rape plant response rating (rape; [7]): 0 | Plant response rating, Rape (rape; [8]): 0 | Morningglory plant response rating (morningglory; [1]): 0 | Morningglory plant response rating (morningglory; [2]): 0 | Morningglory plant response rating (morningglory; [3]): 0 | Morningglory plant response rating (0 to 10 scale) (morningglory; [4]): 0 | Morningglory plant response rating (morningglory; [5]): 0 | Morningglory plant response rating (morningglory; [6]): 0 | Morningglory plant response rating (morningglory; [7]): 0 | Plant response rating, Morningglory (morningglory; [8]): 2 | Velvetleaf plant response rating (velvetleaf; [2]): 0 | Velvetleaf plant response rating (velvetleaf; [3]): 0 | Velvetleaf plant response rating (0 to 10 scale) (velvetleaf; [4]): 0 | Velvetleaf plant response rating (velvetleaf; [5]): 0 | Velvetleaf plant response rating (velvetleaf; [7]): 0 | Plant response rating, Velvetleaf (velvetleaf; [8]): 0 | Nutsedge plant response rating (purple nutsedge; [1]): 0 | Nutsedge plant response rating (purple nutsedge; [2]): 0 | Nutsedge plant response rating (purple nutsedge; [3]): 0 | Nutsedge plant response rating (0 to 10 scale) (purple nutsedge; [4]): 0 | Nutsedge plant response rating (purple nutsedge; [5]): 0 | Nutsedge plant response rating (purple nutsedge; [6]): 0 | Nutsedge plant response rating (purple nutsedge; [7]): 0 | Plant response rating, Nutsedge (purple nutsedge; [8]): 0 | Crabgrass plant response rating (crabgrass; [1]): 2 | Crabgrass plant response rating (crabgrass; [2]): 0 | Crabgrass plant response rating (crabgrass; [3]): 0 | Crabgrass plant response rating (0 to 10 scale) (crabgrass; [4]): 0 | Crabgrass plant response rating (crabgrass; [5]): 6 | Crabgrass plant response rating (crabgrass; [6]): 0 | Crabgrass plant response rating (crabgrass; [7]): 1 | Plant response rating, Crabgrass (crabgrass; [8]): 8 | Sugarbeets plant response rating (sugar beet; [1]): 0 | Sugarbeets plant response rating (sugar beet; [2]): 0 | Sugarbeets plant response rating (sugar beet; [3]): 0 | Sugarbeets plant response rating (0 to 10 scale) (sugar beet; [4]): 0 | Sugarbeets plant response rating (sugar beet; [5]): 0 | Sugarbeets plant response rating (sugar beet; [7]): 0 | Plant response rating, Sugarbeets (sugar beet; [8]): 0 | Wild oats plant response rating (wild oat; [2]): 0 | Wild oats plant response rating (wild oat; [3]): 0 | Wild oats plant response rating (0 to 10 scale) (wild oat; [4]): 0 | Wild oats plant response rating (wild oat; [5]): 0 | Wild oats plant response rating (wild oat; [7]): 0 | Plant response rating, Wild oats (wild oat; [8]): 0 | Barnyardgrass plant response rating (bamyardgrass; [9]): 0 | Barnyardgrass plant response rating (bamyardgrass; [10]): 0 | Barnyardgrass plant response rating (bamyardgrass; [11]): 0 | Plant response rating, Barnyardgrass (bamyardgrass; [12]): 0
